Results from paper PMC10921007 (Cancer Science, 2023).

Biological target: T1, SHCBP1 (Homo sapiens, UniProt Q8NEM2)
T1 sequence (Q8NEM2 2-672): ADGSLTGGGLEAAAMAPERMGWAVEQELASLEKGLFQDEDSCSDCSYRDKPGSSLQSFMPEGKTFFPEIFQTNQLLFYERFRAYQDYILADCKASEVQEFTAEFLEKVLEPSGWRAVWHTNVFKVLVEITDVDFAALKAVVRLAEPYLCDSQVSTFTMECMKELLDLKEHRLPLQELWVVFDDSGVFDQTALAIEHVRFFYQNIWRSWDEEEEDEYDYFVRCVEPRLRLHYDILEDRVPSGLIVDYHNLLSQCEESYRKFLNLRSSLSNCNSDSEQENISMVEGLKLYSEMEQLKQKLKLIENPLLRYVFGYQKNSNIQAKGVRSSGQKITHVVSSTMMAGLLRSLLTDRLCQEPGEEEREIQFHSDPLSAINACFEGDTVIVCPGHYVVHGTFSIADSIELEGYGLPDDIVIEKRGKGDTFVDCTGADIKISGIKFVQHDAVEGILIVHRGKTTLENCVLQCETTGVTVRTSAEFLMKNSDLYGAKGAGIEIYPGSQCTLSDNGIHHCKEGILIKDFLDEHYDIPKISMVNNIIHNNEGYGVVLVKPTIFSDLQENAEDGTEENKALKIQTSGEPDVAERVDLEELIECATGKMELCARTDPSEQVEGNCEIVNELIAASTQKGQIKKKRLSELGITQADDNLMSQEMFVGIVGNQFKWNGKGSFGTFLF
Assay: microscale thermophoresis
Type: binding

CN[C@@H](C)C(=O)N[C@H](C(=O)N1CCC[C@H]1C(=O)N[C@H]1c2ccccc2C[C@H]1OCC#CC#CCO[C@@H]1Cc2ccccc2[C@@H]1NC(=O)[C@@H]1CCCN1C(=O)[C@@H](NC(=O)[C@H](C)NC)C1CCCCC1)C1CCCCC1 [AZD5582]
Kd: 1210 nM
